Measured values as given in patent US5807535A, “Metal complexes of hydroxyaryl containing aminocarboxylic acid chelating agents” (Australian Nuclear Science & Technology Organisation, priority 1992, dated 1998).

Assays:
[1] = Biodistribution of 67Ga complexes in mice; format: in vivo, balb/c mice
Protocol: To ligand (50 μL, 10 mg/mL, 0.2 M NaOAc, […]) was added ^67 Ga citrate (18.5 MBq) and the resultant mixture diluted to 1 mL (0.2 M NaOAc, pH 7). The pH was adjusted to 12 with 1 M NaOH (20 μL) and heated at 40° C. for 40 min. The final volume was adjusted (to 5 mL) with saline and sterilised by filtering through a 0.22 μm filter.
Each animal was injected via tail vein with ^67 Ga complex (100 μL, ~3.7×10^5 Bq). Animals were sacrificed at various time intervals (5 animals per time point/6 time points). Data are illustrated in FIG. 26-30 and in Tables 13-17.
Each ^67 Ga-ligand complex has been evaluated in balb/c mice. […] (see FIG. 26-30).

[2] = Biodistribution of 99mTc complexes in mice; format: in vivo, Balb/c mice
Source text: A series of derivatives incorporating carboxyl and phenolate donor groups (1-6) were synthesised by literature method and their radiolabelling characteristic and biological behaviour evaluated. Initial work involved an investigation of radiochemical properties of the ^99m Tc complexes of the ligands and their biodistribution in rats and mice (see Tables 1-6 and 8-12).
A typical method of radiolabelling of the chelator was achieved by dissolving the chelator in a basic solution of saline. The pH was then adjusted to approx. 6 with HCl. Excess stannous chloride was added to the resultant solution followed by one equivalent volume of sodium ^99m TcO4 (10-50 mCi/ml). Final concentration of the chelator was approx. 1 mg/ml. The efficacy of labelling was determined by ITLC-SG. For each product only one main radiochemical species was observed. Each complex was diluted to 15 μCi/100 μl with saline. […] (See FIGS. 1A and 1B).

For `O=C(O)CN(CCN(CC(=O)O)CC(=O)Nc1ccccc1O)CC(=O)Nc1ccccc1O` [Compound 1], the biodistribution bone ([1]; 1 min) was 5.07 % ID, the biodistribution kidney ([1]; 1 min) was 9.28 % ID and the biodistribution liver ([1]; 1 min) was 15.45 % ID. It also gave a biodistribution muscle ([1]; 1 min) of 22.75 % ID, a biodistribution skin ([1]; 1 min) of 11.72 % ID and a biodistribution spleen ([1]; 1 min) of 0.29 % ID. For the same compound, the biodistribution bone ([1]; 3 min) was 3.30 % ID, the biodistribution kidney ([1]; 3 min) was 5.26 % ID and the biodistribution liver ([1]; 3 min) was 24.21 % ID. The biodistribution muscle ([1]; 3 min) was 12.70 % ID, the biodistribution skin ([1]; 3 min) was 13.76 % ID and the biodistribution spleen ([1]; 3 min) was 0.14 % ID. For the same compound, the biodistribution bone ([1]; 5 min) was 2.83 % ID, the biodistribution kidney ([1]; 5 min) was 4.37 % ID and the biodistribution liver ([1]; 5 min) was 25.79 % ID. It also gave a biodistribution muscle ([1]; 5 min) of 12.14 % ID, a biodistribution skin ([1]; 5 min) of 13.02 % ID and a biodistribution spleen ([1]; 5 min) of 0.1 % ID. It also gave a biodistribution bone ([1]; 10 min) of 2.20 % ID, a biodistribution kidney ([1]; 10 min) of 1.91 % ID and a biodistribution liver ([1]; 10 min) of 22.77 % ID. For the same compound, the biodistribution muscle ([1]; 10 min) was 26.13 % ID, the biodistribution skin ([1]; 10 min) was 8.47 % ID and the biodistribution spleen ([1]; 10 min) was 0.06 % ID. It also gave a biodistribution bone ([1]; 30 min) of 0.50 % ID, a biodistribution kidney ([1]; 30 min) of 0.57 % ID and a biodistribution liver ([1]; 30 min) of 10.11 % ID. For the same compound, the biodistribution muscle ([1]; 30 min) was 1.80 % ID, the biodistribution skin ([1]; 30 min) was 1.56 % ID and the biodistribution spleen ([1]; 30 min) was 0.01 % ID. It also gave a biodistribution kidney ([1]; 120 min) of 0.05 % ID, a biodistribution liver ([1]; 120 min) of 0.88 % ID and a biodistribution muscle ([1]; 120 min) of 0.48 % ID. For the same compound, the biodistribution skin ([1]; 120 min) was 0.24 % ID, the biodistribution spleen ([1]; 120 min) was 0.01 % ID and the “biodistribution GIT” value ([2]; 1 min) was 3.82 % Injected dose. It also gave a biodistribution bladder ([2]; 1 min) of 0.12 % Injected dose, a biodistribution blood ([2]; 1 min) of 27.09 % Injected dose and a biodistribution bone ([2]; 1 min) of 5.34 % Injected dose. It also gave a biodistribution heart ([2]; 1 min) of 0.57 % Injected dose, a biodistribution kidney ([2]; 1 min) of 11.78 % Injected dose and a biodistribution liver ([2]; 1 min) of 12.07 % Injected dose. It also gave a biodistribution lungs ([2]; 1 min) of 1.54 % Injected dose, a biodistribution muscle ([2]; 1 min) of 23.48 % Injected dose and a biodistribution skin ([2]; 1 min) of 19.66 % Injected dose. For the same compound, the biodistribution spleen ([2]; 1 min) was 0.17 % Injected dose, the biodistribution stomach ([2]; 1 min) was 0.5 % Injected dose and the biodistribution tail ([2]; 1 min) was 2.42 % Injected dose. For the same compound, the biodistribution urine ([2]; 1 min) was 0 % Injected dose, the “biodistribution GIT” value ([2]; 3 min) was 6.06 % Injected dose and the biodistribution bladder ([2]; 3 min) was 0.63 % Injected dose. For the same compound, the biodistribution blood ([2]; 3 min) was 12.02 % Injected dose, the biodistribution bone ([2]; 3 min) was 3.1 % Injected dose and the biodistribution heart ([2]; 3 min) was 0.23 % Injected dose. The biodistribution kidney ([2]; 3 min) was 11.23 % Injected dose, the biodistribution liver ([2]; 3 min) was 12.83 % Injected dose and the biodistribution lungs ([2]; 3 min) was 0.98 % Injected dose. It also gave a biodistribution muscle ([2]; 3 min) of 13.18 % Injected dose, a biodistribution skin ([2]; 3 min) of 19.28 % Injected dose and a biodistribution spleen ([2]; 3 min) of 0.1 % Injected dose. The biodistribution stomach ([2]; 3 min) was 0.98 % Injected dose, the biodistribution tail ([2]; 3 min) was 1.58 % Injected dose and the biodistribution urine ([2]; 3 min) was 5.62 % Injected dose. For the same compound, the “biodistribution GIT” value ([2]; 5 min) was 4.77 % Injected dose, the biodistribution bladder ([2]; 5 min) was 0.68 % Injected dose and the biodistribution blood ([2]; 5 min) was 9.77 % Injected dose. The biodistribution bone ([2]; 5 min) was 2.88 % Injected dose, the biodistribution heart ([2]; 5 min) was 0.21 % Injected dose and the biodistribution kidney ([2]; 5 min) was 9.17 % Injected dose. The biodistribution liver ([2]; 5 min) was 11.82 % Injected dose, the biodistribution lungs ([2]; 5 min) was 0.77 % Injected dose and the biodistribution muscle ([2]; 5 min) was 9.81 % Injected dose. It also gave a biodistribution skin ([2]; 5 min) of 19.68 % Injected dose, a biodistribution spleen ([2]; 5 min) of 0.07 % Injected dose and a biodistribution stomach ([2]; 5 min) of 1.02 % Injected dose. For the same compound, the biodistribution tail ([2]; 5 min) was 3.76 % Injected dose, the biodistribution urine ([2]; 5 min) was 4.51 % Injected dose and the “biodistribution GIT” value ([2]; 10 min) was 12.35 % Injected dose. It also gave a biodistribution bladder ([2]; 10 min) of 1.96 % Injected dose, a biodistribution blood ([2]; 10 min) of 5.34 % Injected dose and a biodistribution bone ([2]; 10 min) of 5.06 % Injected dose. The biodistribution heart ([2]; 10 min) was 0.12 % Injected dose, the biodistribution kidney ([2]; 10 min) was 5.58 % Injected dose and the biodistribution liver ([2]; 10 min) was 5.96 % Injected dose. The biodistribution lungs ([2]; 10 min) was 0.48 % Injected dose, the biodistribution muscle ([2]; 10 min) was 16.44 % Injected dose and the biodistribution skin ([2]; 10 min) was 15.68 % Injected dose. The biodistribution spleen ([2]; 10 min) was 0.06 % Injected dose, the biodistribution stomach ([2]; 10 min) was 1.16 % Injected dose and the biodistribution tail ([2]; 10 min) was 2.07 % Injected dose. The biodistribution urine ([2]; 10 min) was 11.64 % Injected dose, the “biodistribution GIT” value ([2]; 30 min) was 20 % Injected dose and the biodistribution bladder ([2]; 30 min) was 1.23 % Injected dose. For the same compound, the biodistribution blood ([2]; 30 min) was 1.82 % Injected dose, the biodistribution bone ([2]; 30 min) was 1.12 % Injected dose and the biodistribution heart ([2]; 30 min) was 0.05 % Injected dose. The biodistribution kidney ([2]; 30 min) was 3.19 % Injected dose, the biodistribution liver ([2]; 30 min) was 3.09 % Injected dose and the biodistribution lungs ([2]; 30 min) was 0.2 % Injected dose. For the same compound, the biodistribution muscle ([2]; 30 min) was 4.98 % Injected dose, the biodistribution skin ([2]; 30 min) was 7.31 % Injected dose and the biodistribution spleen ([2]; 30 min) was 0.02 % Injected dose. For the same compound, the biodistribution stomach ([2]; 30 min) was 0.49 % Injected dose, the biodistribution tail ([2]; 30 min) was 1.53 % Injected dose and the biodistribution urine ([2]; 30 min) was 8.84 % Injected dose.
